A short description of data set [1]: Cytotoxicity against mouse RAW264.7 cells assessed as cell viability at 20 uM incubated for 24 hrs by CCK8 assay relative to control. The format is toxicity, cell-based. The note with it: read-out: Activity.
In data set [2] the test system is RAW264.7. The data set is described as follows: Antiinflammatory activity in mouse RAW264.7 cells assessed as inhibition of LPS-induced NO production at 20 uM incubated for 24 hrs relative to control. Type of data set: functional.
Data set [3] has as its system RAW264.7. Kind of data set: Antiinflammatory activity in LPS-induced mouse RAW264.7 cells assessed as reduction in iNOS mRNA expression level at 20 uM by qRT-PCR analysis. Type of data set: functional, cell-based. For orientation: Real-time PCR tracks product formation cycle by cycle.
Data set [4] concerns RAW264.7. The data set is described as follows: Antiinflammatory activity in LPS-induced mouse RAW264.7 cells assessed as reduction in TNF-alpha mRNA expression level at 20 uM by qRT-PCR analysis. The format is functional, cell-based.
The test system of data set [5] is RAW264.7. Kind of data set: Antiinflammatory activity in mouse RAW264.7 cells assessed as inhibition of LPS-induced NO production incubated for 24 hrs. The format is functional, cell-based. Conditions: RAW264.7, 24 h.
The subject of data set [6] is RAW264.7. The data set is described as follows: Antiinflammatory activity in LPS-induced mouse RAW264.7 cells assessed as reduction in IL-6 mRNA expression level at 20 uM by qRT-PCR analysis. The format is functional, cell-based.
In data set [7] the test system is RAW264.7. The data set is described as follows: Antiinflammatory activity in LPS-induced mouse RAW264.7 cells assessed as reduction in IL-1beta mRNA expression level at 20 uM by qRT-PCR analysis. The format is functional, cell-based.

Molecules are shown by their SMILES. pIC50: −log10 of the molar value. Active and inactive are the calls of the source. No cut-off for these calls is given here.

On to `C=C1C(=O)O[C@]2(C)CC[C@@H]1C[C@H](OC(C)=O)[C@@]1(C)CC[C@H](O1)C(=C)CC[C@H]2OC(C)=O` [GRANOSOLIDE B], for which, in data set [1], the viability at 24 h, 20 µM stood at 102%. For the same compound, in the data set on RAW264.7 [2], the inhibition (as a rule, the drop in the measured response relative to a control, in per cent) at 20 µM came out at 56%.

For `C=C1C(=O)O[C@]2(C)CC[C@@H]1C[C@@H]1O[C@@]1(C)CC[C@@H]1O[C@]1(C)CC[C@H]2OC(C)=O`, the outcome in the data set on RAW264.7 [3], with RAW264.7 [4], in the data set on RAW264.7 [6] and in the data set on RAW264.7 [7] was Active. Besides, in data set [1], the viability at 24 h, 20 µM was 92.7%. Besides, the negative logarithm of the IC50 (pIC50) – broadly, −log10 of the IC50, conventionally taken in molar units – with RAW264.7 [5] was 5.80. The inhibition at 20 µM with RAW264.7 [2] was 141%.

For `C=C1C(=O)O[C@]2(C)CC[C@@H]1C[C@H](O)[C@@]1(C)CC[C@H](O1)C(=C)CC[C@H]2O`, in data set [1], the viability at 24 h, 20 µM worked out at 89%. Moreover, the inhibition at 20 µM in the data set on RAW264.7 [2] was determined as 39%.

`C=C1C(=O)O[C@]2(C)CC[C@@H]1C[C@H](O)[C@@]1(C)CC[C@H](O1)C(=C)CCC2=O`: the viability at 24 h, 20 µM in data set [1] is 89.5%. In the data set on RAW264.7 [2], the inhibition at 20 µM amounted to 34%.

Take `C=C1C(=O)O[C@]2(C)CC[C@@H]1C[C@@H]1O[C@@]1(C)CC/C=C(\C)CC[C@H]2O`: the viability at 24 h, 20 µM in data set [1] was found to be 92.8%. In addition, the pIC50 in the data set with RAW264.7 [5] is 4.88. The inhibition at 20 µM with RAW264.7 [2] amounted to 86.7%.

As for `C=C1C(=O)O[C@]2(C)CC[C@@H]1C[C@H]1O[C@@]1(C)C/C=C/[C@](C)(OO)CC[C@H]2O`, the result in the data set on RAW264.7 [3], in the data set on RAW264.7 [4], in the data set with RAW264.7 [6] and in the data set on RAW264.7 [7] was Active. Further, the viability at 24 h, 20 µM in data set [1] amounted to 108%. Further, the pIC50 in the data set with RAW264.7 [5] is 6.08. In the data set on RAW264.7 [2], the inhibition at 20 µM stood at 124%.

Turning to `C=C1C(=O)O[C@]2(C)CC[C@@H]1C[C@@H]1O[C@@]1(C)C/C=C/[C@@](C)(O)CC[C@H]2OC(C)=O`, the viability at 24 h, 20 µM in data set [1] was determined as 87.9%. Moreover, the pIC50 in the data set on RAW264.7 [5] was 5.00. Also, in the data set on RAW264.7 [2], the inhibition at 20 µM was found to be 99.5%.

In the case of `C=C(C(=O)OC)[C@@H]1CC[C@@](C)(O)[C@@H]2CC[C@@](C)(O2)[C@@H](OC(C)=O)CC[C@]2(C)O[C@H]2C1` [DENDRONPHOLIDE G], the viability at 24 h, 20 µM in data set [1] is 83%. Moreover, the inhibition at 20 µM with RAW264.7 [2] is -49%.

Consider `CNC(=N)NCCC[C@H](N)C(=O)O` [TILARGININE], for which, in data set [1], the viability at 24 h, 20 µM was found to be 92.7%. The pIC50 in the data set on RAW264.7 [5] is 4.50. In addition, the inhibition at 20 µM with RAW264.7 [2] came to 27.4%.

As for `C=C1C(=O)O[C@]2(C)CC[C@@H]1C/C=C(\C)CC/C=C(\C)CC[C@@H]2O`, the viability at 24 h, 20 µM in data set [1] worked out at 93.7%. Besides, in the data set with RAW264.7 [5], the pIC50 is 4.90. Further, in the data set with RAW264.7 [2], the inhibition at 20 µM is 93.1%.

Regarding `C=C(C(=O)OC)[C@@H]1CC[C@@]2(C)O[C@@H]2CC[C@](C)(O)/C=C/C[C@]2(C)O[C@H]2C1`, the viability at 24 h, 20 µM in data set [1] was 108%. The inhibition at 20 µM in the data set with RAW264.7 [2] amounted to 31.1%.

As to `C=C1C(=O)O[C@]2(C)CC[C@@H]1C[C@@H]1O[C@@]1(C)CC[C@H](O)[C@](C)(O)CCC2=O`, the outcome in the data set with RAW264.7 [3], with RAW264.7 [4], in the data set on RAW264.7 [6] and with RAW264.7 [7] was Active. Moreover, the viability at 24 h, 20 µM in data set [1] came out at 89%. The pIC50 in the data set on RAW264.7 [5] was 5.70. Moreover, the inhibition at 20 µM in the data set on RAW264.7 [2] came out at 90%.

`C=C(C(=O)OC)[C@@H]1C/C=C(/C)[C@@H](O)CC/C(C)=C/CC[C@]2(C)O[C@H]2C1`: the viability at 24 h, 20 µM in data set [1] was 93.7%. For the same compound, in the data set on RAW264.7 [2], the inhibition at 20 µM was 79.3%.

As for `C=C1C(=O)O[C@]2(C)CC[C@@H]1C[C@H](O)[C@@]1(C)CC[C@H](O1)[C@](C)(O)CCC2=O`, in data set [1], the viability at 24 h, 20 µM was found to be 102%. For the same compound, in the data set with RAW264.7 [2], the inhibition at 20 µM is 43%.

Turning to `C=C1C(=O)O[C@]2(C)CC[C@@H]1C[C@H](O)[C@@]1(C)CC/C=C(/CCC2=O)COO1`, the viability at 24 h, 20 µM in data set [1] stood at 94.5%. Moreover, the inhibition at 20 µM in the data set with RAW264.7 [2] stood at 34.4%.

In the case of `C=C1CO[C@]2(C)CC[C@@H]1C[C@]1(O)O[C@@]1(C)CC/C=C(\C)CC[C@@H]2O`, the viability at 24 h, 20 µM in data set [1] amounted to 82.3%. For the same compound, the inhibition at 20 µM in the data set on RAW264.7 [2] is -146%.

Consider `C=C1C(=O)O[C@]2(C)CC[C@@H]1C[C@H](O)[C@@]1(C)CC[C@H](O1)C(=C)CC[C@H]2OC(C)=O` [GRANOSOLIDE A], for which the viability at 24 h, 20 µM in data set [1] turned out to be 88.7%. Besides, the inhibition at 20 µM in the data set with RAW264.7 [2] amounted to 31%.

In the case of `C=C1C(=O)O[C@]2(C)CC[C@@H]1C[C@@H]1O[C@@]1(C)C/C=C/[C@@](C)(OO)CCC2=O`, the viability at 24 h, 20 µM in data set [1] is 93.7%. Also, the inhibition at 20 µM in the data set with RAW264.7 [2] came to 48.7%.

`C=C(C(=O)OC)[C@@H]1CC[C@@](C)(O)C(=O)CC[C@](C)(O)/C=C/C[C@]2(C)O[C@H]2C1`: the viability at 24 h, 20 µM in data set [1] is 98.1%. Also, the inhibition at 20 µM in the data set on RAW264.7 [2] stood at 29.1%.

For the compound `C=C1C(=O)O[C@]2(C)CC[C@@H]1C[C@@H]1O[C@@]1(C)CC/C=C(\C)CC[C@@H]2O` [SINULARIOLIDE], the outcome with RAW264.7 [3], with RAW264.7 [4], in the data set with RAW264.7 [6] and with RAW264.7 [7] was Active. Also, the viability at 24 h, 20 µM in data set [1] was 83.3%. The pIC50 in the data set with RAW264.7 [5] was 5.44. Also, the inhibition at 20 µM with RAW264.7 [2] was 108%.

Take `C=C(C(=O)OC)[C@@H]1CC[C@]2(C)O[C@H]2CC[C@](C)(OO)/C=C/C[C@]2(C)O[C@@H]2C1`: the viability at 24 h, 20 µM in data set [1] was 87.4%. The inhibition at 20 µM with RAW264.7 [2] worked out at 35.4%.

Take `C=C(C(=O)OC)[C@@H]1CC[C@]2(C)O[C@@]2(O)CC/C(C)=C/CC[C@]2(C)O[C@@H]2C1`: in data set [1], the viability at 24 h, 20 µM came out at 94%. Further, in the data set with RAW264.7 [2], the inhibition at 20 µM stood at 0%.

In the case of `C=C1C(=O)O[C@]2(C)CC[C@@H]1C[C@H](O)[C@@]1(C)CC[C@H](O1)[C@](C)(O)CC[C@H]2OC(C)=O` [QUERCIFORMOLIDE B], the viability at 24 h, 20 µM in data set [1] was determined as 103%. In addition, the inhibition at 20 µM in the data set with RAW264.7 [2] was 16.3%.

For `C=C(C(=O)OC)[C@@H]1CC[C@@](C)(O)[C@@H](OC(C)=O)CC/C(C)=C/C/C=C(\C)[C@H](O)C1`, the viability at 24 h, 20 µM in data set [1] was found to be 89.2%. Further, the inhibition at 20 µM with RAW264.7 [2] is 55.7%.

Consider `C=C(C(=O)OC)[C@@H]1CC[C@@](C)(O)[C@@H](OC(C)=O)CC/C(C)=C/CC[C@]2(C)O[C@H]2C1`, for which, in data set [1], the viability at 24 h, 20 µM turned out to be 104%. Also, in the data set on RAW264.7 [2], the inhibition at 20 µM is -4.67%.

In the case of `C=C1C(=O)O[C@]2(C)CC[C@@H]1C[C@@H]1O[C@@]1(C)CC[C@H](OC(C)=O)[C@@]1(C)CC[C@@H]2O1`, the viability at 24 h, 20 µM in data set [1] was found to be 103%. The inhibition at 20 µM with RAW264.7 [2] turned out to be 36.7%.

Turning to `C=C1C(=O)O[C@]2(C)CC[C@@H]1C[C@H](OC(C)=O)[C@@]1(C)CC[C@H](O1)[C@](C)(O)CC[C@H]2O`, the viability at 24 h, 20 µM in data set [1] was 109%. Moreover, the inhibition at 20 µM with RAW264.7 [2] worked out at 25.8%.

As for `C=C(C(=O)OC)[C@@H]1CC[C@@](C)(O)C(=O)CC/C(C)=C/CC[C@]2(C)O[C@H]2C1`, the viability at 24 h, 20 µM in data set [1] came out at 116%. The inhibition at 20 µM in the data set on RAW264.7 [2] stood at 35.7%.

`C=C1C(=O)O[C@]2(C)CC[C@@H]1C[C@H](O)[C@@]1(C)CC[C@H](OC(C)=O)[C@@](C)(CCC2=O)O1` [QUERCIFORMOLIDE A]: in data set [1], the viability at 24 h, 20 µM was found to be 94.1%. In the data set with RAW264.7 [5], the pIC50 was 5.02. Further, in the data set with RAW264.7 [2], the inhibition at 20 µM is 85.1%.

The values are drawn from ChEMBL document CHEMBL5523736, “The First Discovery of Marine Polyoxygenated Cembranolides as Potential Agents for the Treatment of Ulcerative Colitis” (J Med Chem, 2024).
